Among the data in ChEMBL document CHEMBL1131074, “Conformational analysis of ketolide, conformations of RU 004 in solution and bound to bacterial ribosomes” (J Med Chem, 1998) are pKa1 and pKa2 values, retold here.

Format in all cases: functional, organism-based
In test [1] the test system is Escherichia coli. Description: Pka1 value was evaluated in Escherichia coli MRE600 strain 70S ribosome (Observation 1).
The subject of test [2] is Escherichia coli. Description: Pka1 value was evaluated in Escherichia coli MRE600 strain 70S ribosome (Observation 2).
Test [3] relates to Escherichia coli. The test is described as follows: Pka2 value was evaluated in Escherichia coli MRE600 strain 70S ribosome (Observation 1).
Test [4] relates to Escherichia coli. The test is described as follows: Pka2 value was evaluated in Escherichia coli MRE600 strain 70S ribosome (Observation 2).

Regarding `CC[C@H]1OC(=O)C(C)C(=O)[C@H](C)[C@@H](O[C@@H]2O[C@H](C)C[C@H](N(C)C)[C@H]2O)[C@@](C)(OC)C[C@@H](C)C(=O)[C@H](C)[C@H]2N(NCCCc3ccnc4ccccc34)C(=O)O[C@]12C` (some centres undefined), the pKa1 amounted to 5 with Escherichia coli [1] and 3 in the test with Escherichia coli [2]. The pKa2 amounted to 8 in the test on Escherichia coli [3] and 6 in the test on Escherichia coli [4].
